These results are taken from ChEMBL document CHEMBL5223100, “Homobivalent, Trivalent, and Covalent PROTACs: Emerging Strategies for Protein Degradation” (J Med Chem, 2022).

Where only a bound is given, the exact number is not on record here.

For assay [1], the target named is Transcription intermediary factor 1-alpha (Homo sapiens, UniProt O15164). The experiment in a line: Inhibition of His-tagged TRIM24 (unknown origin) expressed in Escherichia coli BL21(DE3)pLysS competent cells using biotinylated-H3K23ac peptide as substrate incubated for 30 mins by Alphascreen assay. In general terms: Alpha assays give light when donor and acceptor beads are brought close together.

In the next assay the test system is HT-29. The experiment in a line: Antiproliferative activity against human HT-29 cells. Type of assay: functional, cell-based.
Assay [2] addresses Dual specificity mitogen-activated protein kinase kinase; MEK1/2 (Homo sapiens) (UniProt P36507+Q02750). The experiment in a line: Induction of MEK degradation in human HT-29 cells assessed as maximum degradation at 100 nM after 12 hrs relative to control. In kind it is cell-based.
Assay [3] deals with T1, Protein cereblon (Homo sapiens, UniProt Q96SW2). The experiment in a line: Induction of CRBN degradation in human HeLa cells incubated for 4 hrs. In kind it is cell-based.
T1 sequence (Q96SW2 whole entry): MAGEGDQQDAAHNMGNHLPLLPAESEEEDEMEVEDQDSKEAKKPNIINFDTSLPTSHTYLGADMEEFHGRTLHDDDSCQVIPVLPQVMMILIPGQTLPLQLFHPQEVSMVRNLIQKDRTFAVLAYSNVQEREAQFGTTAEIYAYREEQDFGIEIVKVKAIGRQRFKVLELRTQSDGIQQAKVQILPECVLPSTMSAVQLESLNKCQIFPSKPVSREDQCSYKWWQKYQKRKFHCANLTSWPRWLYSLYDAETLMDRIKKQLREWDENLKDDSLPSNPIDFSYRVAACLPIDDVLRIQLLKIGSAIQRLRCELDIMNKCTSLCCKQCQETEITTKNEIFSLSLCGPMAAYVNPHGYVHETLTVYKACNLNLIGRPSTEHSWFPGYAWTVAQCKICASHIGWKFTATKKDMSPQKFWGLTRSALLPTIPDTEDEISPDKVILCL
The target in assay [4] is T1, Protein cereblon. In words: Induction of CRBN degradation in human HeLa cells at 1 uM incubated for 4 hrs relative to control. In kind it is cell-based.
The target in assay [5] is T2, von Hippel-Lindau disease tumor suppressor (Homo sapiens, UniProt P40337). The experiment in a line: Binding affinity to human VHL by isothermal calorimetric assay. A general note: ITC needs no label: the signal is the heat of the interaction.
Target sequence in this assay (P40337 whole entry): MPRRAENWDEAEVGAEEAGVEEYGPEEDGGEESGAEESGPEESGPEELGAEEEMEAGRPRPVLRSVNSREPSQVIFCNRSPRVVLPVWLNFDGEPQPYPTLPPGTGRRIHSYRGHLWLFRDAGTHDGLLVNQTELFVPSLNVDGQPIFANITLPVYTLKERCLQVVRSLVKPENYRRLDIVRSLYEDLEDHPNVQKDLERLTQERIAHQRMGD
The target in assay [6] is T2, von Hippel-Lindau disease tumor suppressor. In words: Induction of pVHL30 degradation in human HeLa cells incubated for 4 hrs. Type of assay: cell-based.
The next assay relates to MV4-11. The experiment in a line: Antiproliferative activity against human MV4-11 cells.
For assay [7], the target named is T1, Protein cereblon. The experiment in a line: Induction of CRBN degradation in human MM1.S cells assessed as maximum degradation at 100 nM incubated for 24 hrs relative to control. Type of assay: cell-based.
The target in assay [8] is T3, Tyrosine-protein kinase BTK (Homo sapiens, UniProt Q06187). The experiment in a line: Induction of BTK degradation in human K562 cells. In kind it is cell-based.
T3 sequence (Q06187 whole entry): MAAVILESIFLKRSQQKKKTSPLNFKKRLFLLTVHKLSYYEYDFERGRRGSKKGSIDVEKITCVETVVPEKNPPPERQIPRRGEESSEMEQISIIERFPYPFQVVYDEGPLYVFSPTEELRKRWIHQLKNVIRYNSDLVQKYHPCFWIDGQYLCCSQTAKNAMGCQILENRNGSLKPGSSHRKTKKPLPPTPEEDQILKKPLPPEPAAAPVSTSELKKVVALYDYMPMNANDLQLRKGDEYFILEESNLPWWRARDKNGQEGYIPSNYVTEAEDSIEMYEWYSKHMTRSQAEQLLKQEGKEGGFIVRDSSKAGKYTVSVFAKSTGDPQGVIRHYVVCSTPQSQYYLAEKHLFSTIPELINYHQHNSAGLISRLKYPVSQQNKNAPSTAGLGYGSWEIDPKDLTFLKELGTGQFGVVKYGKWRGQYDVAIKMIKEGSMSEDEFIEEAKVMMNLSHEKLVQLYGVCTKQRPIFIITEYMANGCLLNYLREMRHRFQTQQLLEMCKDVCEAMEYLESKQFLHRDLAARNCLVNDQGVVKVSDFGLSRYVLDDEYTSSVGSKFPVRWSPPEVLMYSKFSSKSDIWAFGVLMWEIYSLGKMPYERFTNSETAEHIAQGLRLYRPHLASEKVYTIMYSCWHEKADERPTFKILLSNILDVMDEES
In assay [9] the target is T3, Tyrosine-protein kinase BTK. In words: Induction of BTK degradation in human K562 cells assessed as maximum degradation relative to control. In kind it is cell-based.
For assay [10], the target named is T4, Tyrosine-protein kinase Blk (Homo sapiens, UniProt P51451). In words: Induction of BLK degradation in human K562 cells. In kind it is cell-based.
Target sequence in this assay (P51451 whole entry): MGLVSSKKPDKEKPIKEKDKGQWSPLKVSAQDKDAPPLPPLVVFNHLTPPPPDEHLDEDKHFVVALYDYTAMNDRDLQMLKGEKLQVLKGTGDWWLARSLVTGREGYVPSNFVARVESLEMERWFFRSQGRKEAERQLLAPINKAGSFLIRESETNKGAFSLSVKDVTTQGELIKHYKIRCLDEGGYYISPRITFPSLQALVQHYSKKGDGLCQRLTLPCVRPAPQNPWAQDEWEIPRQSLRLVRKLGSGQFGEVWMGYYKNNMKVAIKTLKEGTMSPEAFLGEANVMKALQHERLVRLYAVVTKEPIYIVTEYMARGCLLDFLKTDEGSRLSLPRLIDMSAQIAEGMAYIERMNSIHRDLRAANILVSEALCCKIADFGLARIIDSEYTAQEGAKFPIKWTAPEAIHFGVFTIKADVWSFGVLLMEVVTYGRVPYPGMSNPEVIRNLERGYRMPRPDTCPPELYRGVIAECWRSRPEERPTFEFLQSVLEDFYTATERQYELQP
The target of assay [11] is T4, Tyrosine-protein kinase Blk. In words: Induction of BLK degradation in human K562 cells assessed as maximum degradation relative to control. In kind it is cell-based.
Target sequence in this assay (P51451 2-505 limits assumed): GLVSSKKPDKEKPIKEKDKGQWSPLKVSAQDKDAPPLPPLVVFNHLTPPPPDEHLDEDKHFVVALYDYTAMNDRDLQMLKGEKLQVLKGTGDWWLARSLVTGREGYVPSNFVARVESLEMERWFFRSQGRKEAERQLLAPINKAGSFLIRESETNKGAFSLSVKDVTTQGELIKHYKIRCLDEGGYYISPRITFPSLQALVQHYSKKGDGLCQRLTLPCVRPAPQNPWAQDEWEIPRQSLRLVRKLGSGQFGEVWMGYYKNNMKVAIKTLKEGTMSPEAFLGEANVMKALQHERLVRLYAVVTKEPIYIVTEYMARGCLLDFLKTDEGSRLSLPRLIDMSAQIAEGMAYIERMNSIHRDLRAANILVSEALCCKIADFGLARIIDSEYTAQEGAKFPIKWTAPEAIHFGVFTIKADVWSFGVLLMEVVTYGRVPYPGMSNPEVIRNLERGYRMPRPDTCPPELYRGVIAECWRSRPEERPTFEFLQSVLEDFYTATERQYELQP
A further assay concerns SU-DHL-1. The experiment in a line: Antiproliferative activity against human SU-DHL-1 cells. Type of assay: functional, cell-based.
Assay [12] deals with ALK tyrosine kinase receptor (Homo sapiens) (UniProt Q9UM73). In words: Induction of ALK degradation in human SU-DHL-1 cells assessed as maximum degradation at 3 uM after 12 hrs relative to control. In kind it is cell-based.
Chain of ALK tyrosine kinase receptor (Homo sapiens) (Q9UM73 19-1620 limits assumed): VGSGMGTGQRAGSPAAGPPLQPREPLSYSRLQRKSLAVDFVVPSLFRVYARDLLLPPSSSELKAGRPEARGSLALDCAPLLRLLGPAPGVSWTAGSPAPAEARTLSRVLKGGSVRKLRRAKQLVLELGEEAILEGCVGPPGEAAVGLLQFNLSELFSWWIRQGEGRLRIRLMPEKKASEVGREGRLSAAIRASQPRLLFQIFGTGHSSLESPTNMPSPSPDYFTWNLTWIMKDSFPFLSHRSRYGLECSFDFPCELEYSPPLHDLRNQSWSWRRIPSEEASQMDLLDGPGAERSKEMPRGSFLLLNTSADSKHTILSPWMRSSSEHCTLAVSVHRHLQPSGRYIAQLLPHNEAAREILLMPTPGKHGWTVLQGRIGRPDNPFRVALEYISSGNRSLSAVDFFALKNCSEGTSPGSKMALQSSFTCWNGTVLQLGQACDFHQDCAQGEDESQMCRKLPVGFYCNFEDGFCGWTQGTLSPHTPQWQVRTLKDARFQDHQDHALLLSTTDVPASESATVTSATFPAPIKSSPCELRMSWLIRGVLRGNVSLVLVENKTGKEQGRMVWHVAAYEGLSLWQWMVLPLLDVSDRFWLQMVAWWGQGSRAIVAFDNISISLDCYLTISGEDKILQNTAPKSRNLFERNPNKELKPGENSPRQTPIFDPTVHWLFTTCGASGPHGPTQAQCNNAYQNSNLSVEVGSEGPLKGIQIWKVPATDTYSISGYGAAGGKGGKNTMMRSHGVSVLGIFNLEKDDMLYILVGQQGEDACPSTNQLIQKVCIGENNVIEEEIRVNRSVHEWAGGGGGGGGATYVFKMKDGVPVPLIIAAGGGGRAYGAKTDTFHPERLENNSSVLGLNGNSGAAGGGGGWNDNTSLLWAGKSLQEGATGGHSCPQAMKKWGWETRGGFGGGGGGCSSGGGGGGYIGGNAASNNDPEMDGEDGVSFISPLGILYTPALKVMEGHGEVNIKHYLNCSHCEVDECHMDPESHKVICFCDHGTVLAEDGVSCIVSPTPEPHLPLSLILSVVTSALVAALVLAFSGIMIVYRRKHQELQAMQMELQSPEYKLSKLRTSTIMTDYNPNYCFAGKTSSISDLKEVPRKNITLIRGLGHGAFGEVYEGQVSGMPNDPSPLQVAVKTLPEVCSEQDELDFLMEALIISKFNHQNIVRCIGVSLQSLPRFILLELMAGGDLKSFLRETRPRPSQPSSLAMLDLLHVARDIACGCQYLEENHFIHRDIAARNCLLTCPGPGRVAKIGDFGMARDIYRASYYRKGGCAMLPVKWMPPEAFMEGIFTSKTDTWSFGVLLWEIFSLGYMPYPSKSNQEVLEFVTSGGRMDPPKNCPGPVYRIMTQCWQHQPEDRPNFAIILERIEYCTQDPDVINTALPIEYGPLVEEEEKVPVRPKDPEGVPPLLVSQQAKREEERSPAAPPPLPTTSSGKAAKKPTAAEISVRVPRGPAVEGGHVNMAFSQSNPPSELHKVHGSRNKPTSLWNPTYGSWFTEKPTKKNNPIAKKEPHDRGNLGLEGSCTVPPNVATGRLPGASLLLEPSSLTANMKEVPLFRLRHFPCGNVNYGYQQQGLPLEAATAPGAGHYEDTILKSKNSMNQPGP
For assay [13] the target is unchanged. In words: Induction of ALK degradation in human SU-DHL-1 cells assessed as maximum degradation at 100 nM pretreated with S-Ac-GSH followed by compound addition and measured after 12 hrs relative to control. Type of assay: cell-based.
Assay [14] shares this target. The experiment in a line: Induction of ALK degradation in human SU-DHL-1 cells assessed as maximum degradation at 30 nM after 12 hrs relative to control. In kind it is cell-based.
Another assay has as its system HeLa. The experiment in a line: Antiproliferative activity against human HeLa cells. In kind it is functional, cell-based.
Assay [15] has as its target Bromodomain-containing protein 4 (Homo sapiens, UniProt O60885). The experiment in a line: Induction of BRD4 degradation in human HeLa cells assessed as maximum degradation at 30 nM after 12 hrs relative to control. Type of assay: cell-based.
The test system of a further assay is HFF-1. The experiment in a line: Antiproliferative activity against human HFF-1 cells. In kind it is functional, cell-based.
A further assay deals with A549. The experiment in a line: Antiproliferative activity against human A549 cells. Type of assay: functional, cell-based.
In another assay the test system is HCT-116. In words: Antiproliferative activity against human HCT-116 cells. Type of assay: functional, cell-based.
Assay [16] concerns the target ALK tyrosine kinase receptor (Homo sapiens) (UniProt Q9UM73). In words: Induction of ALK degradation in human SU-DHL-1 cells assessed as maximum degradation at 300 nM after 12 hrs relative to control. In kind it is cell-based.

Chain of Dual specificity mitogen-activated protein kinase kinase; MEK1/2 (Homo sapiens) (P36507 whole entry, looked up): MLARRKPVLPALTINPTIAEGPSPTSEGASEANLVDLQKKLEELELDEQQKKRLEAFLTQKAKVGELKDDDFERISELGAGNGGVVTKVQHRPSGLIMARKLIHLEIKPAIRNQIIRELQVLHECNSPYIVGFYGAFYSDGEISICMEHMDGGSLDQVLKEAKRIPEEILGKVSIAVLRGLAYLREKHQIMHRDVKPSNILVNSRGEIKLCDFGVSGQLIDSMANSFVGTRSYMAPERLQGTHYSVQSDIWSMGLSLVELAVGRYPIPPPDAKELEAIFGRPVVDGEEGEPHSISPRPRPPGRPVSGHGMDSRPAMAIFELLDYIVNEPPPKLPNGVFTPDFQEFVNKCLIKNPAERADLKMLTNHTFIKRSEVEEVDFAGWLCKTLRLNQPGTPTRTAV
Chain of Dual specificity mitogen-activated protein kinase kinase; MEK1/2 (Homo sapiens) (Q02750 whole entry, looked up): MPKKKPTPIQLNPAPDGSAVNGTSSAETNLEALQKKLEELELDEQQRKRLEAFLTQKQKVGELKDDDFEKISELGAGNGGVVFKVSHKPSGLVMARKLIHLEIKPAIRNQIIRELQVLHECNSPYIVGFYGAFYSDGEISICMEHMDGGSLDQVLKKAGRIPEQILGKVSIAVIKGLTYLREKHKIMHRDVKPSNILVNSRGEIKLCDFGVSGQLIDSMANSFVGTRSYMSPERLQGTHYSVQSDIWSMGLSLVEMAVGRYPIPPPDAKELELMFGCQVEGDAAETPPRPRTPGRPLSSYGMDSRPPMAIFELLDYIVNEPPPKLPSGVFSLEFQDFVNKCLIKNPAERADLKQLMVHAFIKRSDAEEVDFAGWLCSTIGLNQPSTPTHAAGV

In general, IC50 refers to the concentration that gives 50% inhibition. `CCCOc1cccc(Oc2cc3c(cc2NS(=O)(=O)c2ccc(OC)c(OC)c2)n(C)c(=O)n3C)c1` gave an IC50 in assay [1] of 218 nM.

The Emax is the maximal effect, on the per cent scale that the assay sets. `Cc1ncsc1-c1ccc([C@H](C)NC(=O)[C@@H]2C[C@@H](OC(=O)CCCCn3cc(CNC(=O)CC[C@H](NC(=O)c4ccc(NCc5cnc6nc(N)[nH]c(=O)c6n5)cc4)C(=O)O)nn3)CN2C(=O)[C@@H](NC(=O)CCCCCCCCCCNCCCONC(=O)c2ccc(F)c(F)c2Nc2ccc(I)cc2F)C(C)(C)C)cc1` returned a concentration for half-maximal inhibition (IC50) in the assay with HT-29 of 246 nM. Besides, in assay [2], the Emax is 90%.

The DC50 is the concentration at which degradation of the target reaches its halfway point. The low end stands for degradation at low concentration, the high end for degradation only at high concentration. In turn, `Cc1ncsc1-c1ccc(CNC(=O)[C@@H]2C[C@@H](O)CN2C(=O)[C@@H](NC(=O)COCCCCCOCCOCCCCCOCC(=O)NCCNc2cccc3c2C(=O)N(C2CCC(=O)NC2=O)C3=O)C(C)(C)C)cc1` (stereo partly specified) gave a DC50 on Protein cereblon [3] of 200 nM. At Protein cereblon [4], the Emax came to 75%.

As usually defined, the Kd is the equilibrium constant for the complex coming apart. Usually EC99 stands for the concentration needed for an effect of 99%. Read a high EC99 as weaker potency. `Cc1ncsc1-c1ccc(CNC(=O)[C@@H]2C[C@@H](O)CN2C(=O)[C@@H](NC(=O)COCCOCCOCCOCCOCCOC(=O)N[C@H](C(=O)N2C[C@H](O)C[C@H]2C(=O)NCc2ccc(-c3scnc3C)cc2)C(C)(C)C)C(C)(C)C)cc1` displayed a Kd in assay [5] of 11 nM. In [6], this compound yielded a DC50 of less than 100 nM and an EC99 of 10 nM.

In the assay on MV4-11, `Cc1sc2c(c1C)C(c1ccc(Cl)cc1)=N[C@@H](CC(=O)NCCOCCOCCOCC(C)(COCCOCCOCCNC(=O)C[C@@H]1N=C(c3ccc(Cl)cc3)c3c(sc(C)c3C)-n3c(C)nnc31)COC(=O)NCCNc1cccc3c1C(=O)N(C1CCC(=O)NC1=O)C3=O)c1nnc(C)n1-2` (stereo partly specified) returned an IC50 of 94.6 nM.

As to `Cc1ncsc1-c1ccc(CNC(=O)[C@@H]2C[C@@H](O)CN2C(=O)[C@@H](NC(=O)CCCCOCCCCCOCCCCCCNc2cccc3c2C(=O)N(C2CCC(=O)NC2=O)C3=O)C(C)(C)C)cc1` (stereo partly specified), on Protein cereblon [7], the Emax is greater than 90%.

As for `C=CC(=O)N1C[C@@H](n2nc(-c3ccc(Oc4ccccc4)cc3)c3c(N)ncnc32)C[C@H]1C(=O)OCCOCCOCC(=O)N[C@H](C(=O)N1C[C@H](O)C[C@H]1C(=O)NCc1ccc(-c2scnc2C)cc1)C(C)(C)C`, the values for the 50% degradation concentration (DC50) in assay [8] and in [10] were 136 nM and 220 nM, respectively. Besides, the results for the maximal effect (Emax) in assay [9] and in [11] were 88% and 75%, respectively.

Regarding `Cc1cc(Nc2ncc(Cl)c(Nc3ccccc3S(=O)(=O)C(C)C)n2)c(OC(C)C)cc1C1CCN(CC(=O)NCCNc2cccc3c2C(=O)N(C2CCC(=O)N(C(=O)OCCSSCCn4cc(CNC(=O)CC[C@H](NC(=O)c5ccc(NCc6cnc7nc(N)[nH]c(=O)c7n6)cc5)C(=O)O)nn4)C2=O)C3=O)CC1` (stereo partly specified), in the assay on SU-DHL-1, half-maximal inhibition (IC50) was put at 465 nM. The Emax in assay [12] and in assay [13] was 100% throughout.

As to `Cc1cc(Nc2ncc(Cl)c(Nc3ccccc3S(=O)(=O)C(C)C)n2)c(OC(C)C)cc1C1CCN(CC(=O)NCCNc2cccc3c2C(=O)N(C2CCC(=O)NC2=O)C3=O)CC1` (stereo unspecified), the IC50 in the assay with SU-DHL-1 turned out to be 16 nM. Moreover, in assay [14], the Emax is 90%.

As for `Cc1ncsc1-c1ccc([C@H](C)NC(=O)[C@@H]2C[C@@H](OC(=O)CCCCn3cc(CNC(=O)CC[C@H](NC(=O)c4ccc(NCc5cnc6nc(N)[nH]c(=O)c6n5)cc4)C(=O)O)nn3)CN2C(=O)[C@@H](NC(=O)COCCCOCCNC(=O)C[C@@H]2N=C(c3ccc(Cl)cc3)c3c(sc(C)c3C)-n3c(C)nnc32)C(C)(C)C)cc1`, the IC50 with HeLa is 246 nM; in the assay with HFF-1, greater than 10000 nM. For the same compound, the Emax in assay [15] was 100%.

In the case of `COc1ccc(C2=N[C@@H](c3ccc(Cl)cc3)[C@@H](c3ccc(Cl)cc3)N2C(=O)N2CCNC(=O)C2)c(OC(C)C)c1` [NUTLIN-3], the half-inhibitory concentration (IC50) with A549 is 7900 nM; with HCT-116, 5000 nM.

`Cc1cc(Nc2ncc(Cl)c(Nc3ccccc3S(=O)(=O)C(C)C)n2)c(OC(C)C)cc1C1CCN(CCCCC(=O)N[C@H](C(=O)N2C[C@H](OC(=O)CCCCn3cc(CNC(=O)CC[C@H](NC(=O)c4ccc(NCc5cnc6nc(N)[nH]c(=O)c6n5)cc4)C(=O)O)nn3)C[C@H]2C(=O)N[C@@H](C)c2ccc(-c3scnc3C)cc2)C(C)(C)C)CC1`: half-maximal inhibition in the assay with SU-DHL-1 (IC50) required 200 nM. In addition, in assay [16], the Emax is 100%.
